Source: patent US20170107179A1 (Tetraphase Pharmaceuticals, Inc., priority 2010, published 2017)

Legend:
[1] = system: E. coli DH10B EC1082 TetA; assay: MIC, E. coli DH10B recombinantly expressing tetracycline-resistance gene; conditions: arabinose-induced, ampicillin in medium
[2] = system: E. coli DH10B EC1153 Tet(X); assay: as above; conditions: arabinose-induced, ampicillin in medium
E. coli DH10B EC969 TetM = assay: as above; conditions: arabinose-induced, ampicillin in medium
[3] = system: E. coli DH10B EC1083 TetB; assay: as above; conditions: arabinose-induced, ampicillin in medium
E. coli DH10B EC971 LacZ = assay: MIC, E. coli DH10B recombinantly expressing control gene; conditions: E. coli DH10B, arabinose-induced, ampicillin in medium
[4] = system: Crl:SKH1-hr hairless mouse; assay: In vivo phototoxicity, Crl:SKH1-hr hairless mouse model; conditions: hairless mice, intracutaneous 0.0375 or 0.375 mg/mouse, UVA 20 J/cm^2, observed up to 3 days
Protocol: To estimate its potential to produce phototoxicity in vivo, Compound 102 was tested in validated in vivo and in vitro models of acute phototoxic activity at Charles River Laboratories (See Spielmann, H., et al., The second ECVAM workshop on phototoxicity testing. The report and recommendations of ECVAM workshop 42. Altern Lab Anim, 2000. 28(6): p. 777-814; and Peters, B. and H. G. Holzhutter, In vitro phototoxicity testing: development and validation of a new concentration response analysis software and biostatistical analyses related to the use of various prediction models. Altern Lab Anim, 2002. 30(4): p. 415-32, the entire teachings of both are incorporated herein by reference).
A vehicle control group was injected with normal saline. The pH of compound formulations was adjusted to 6.5±0.5 prior to injection. Immediately after administration, mice were lightly anesthetized via intraperitoneal injection of chloral hydrate in deionized water and then positioned on plastic tubing with laboratory tape. An aluminum foil mask with a single hole with a diameter of 1.3 cm (1.3 cm^2) was placed over the mid-dorsum injection site before UVA exposure. The distal administration site was shielded from UVA exposure. A UVA dose of no less than 20.0 and no more than 20.1 J/cm^2 at an intensity of 5±1 mW/cm^2 at the level of the mice was delivered during the exposure period. […]

E. coli DH10B EC970 TetK = assay: MIC, E. coli DH10B recombinantly expressing tetracycline-resistance gene; conditions: arabinose-induced, ampicillin in medium

Compound: CN(C)c1ccc(O)c2c1C[C@H]1C[C@H]3[C@H](N(C)C)C(O)=C(C(N)=O)C(=O)[C@@]3(O)C(O)=C1C2=O [Minocycline, minocycline]
- MIC EC1082 TetA [1]: 8
- MIC EC1153 Tet(X) [2]: 4
- MIC EC969 TetM (E. coli DH10B EC969 TetM): 64
- MIC EC1083 TetB [3]: 16
- MIC EC971 LacZ (E. coli DH10B EC971 LacZ): 0.5
- phototoxicity, skin reactions at site of UVA exposure [4]: no skin reaction at either dose
- MIC EC970 TetK (E. coli DH10B EC970 TetK): 1
